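Briefly, cells in 96-well plates were exposed to five compound concentrations for 48 h, and endpoints were estimated by linear interpolation. GI50 is the concentration that inhibits growth by half.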 The source made the active and inactive calls. Rule as the data show it: active = GI50 up to about 1.1 µM and inactive = higher.
Key:
Assay in all cases: growth of human tumour cells (NCI), 48 h
[1] = tested on: COLO 205
[2] = tested on: SN12C
[3] = tested on: MOLT-4
[4] = tested on: M14
[5] = tested on: A498
[6] = tested on: K562
[7] = tested on: XF498
[8] = tested on: M19-MEL
[9] = tested on: HCT-15
[10] = tested on: RPMI-8226
[11] = tested on: HOP-18
[12] = tested on: RXF 631
[13] = tested on: RXF 393
[14] = tested on: SF-539
[15] = tested on: NCI-H23
[16] = tested on: U-251
[17] = tested on: CCRF-CEM
[18] = tested on: LOX IMVI
[19] = tested on: DMS-273
[20] = tested on: IGROV-1
[21] = tested on: KM-20L2
[22] = tested on: UACC-62
[23] = tested on: HOP-92
[24] = tested on: HL-60
[25] = tested on: SK-OV-3
[26] = tested on: LXFL 529
[27] = tested on: SNB-19
[28] = tested on: SK-MEL-28
[29] = tested on: ACHN
[30] = tested on: DMS-114
[31] = tested on: NCI-H460
[32] = tested on: SNB-75
[33] = tested on: OVCAR-4
[34] = tested on: SNB-78
[35] = tested on: OVCAR-5
[36] = tested on: KM12
[37] = tested on: Malme-3M
[38] = tested on: OVCAR-3
[39] = tested on: NCI-H522
[40] = tested on: NCI-H226
[41] = tested on: OVCAR-8
[42] = tested on: HOP-62
[43] = tested on: HCT-116
[44] = tested on: SK-MEL-2
[45] = tested on: DLD-1
[46] = tested on: SF-268
[47] = tested on: CAKI-1
[48] = tested on: SF-295
[49] = tested on: SW-620
[50] = tested on: HCC 2998
[51] = tested on: HT-29
[52] = tested on: UO-31
[53] = tested on: A549
[54] = tested on: UACC-257
[55] = tested on: SR
[56] = tested on: 786-0
[57] = tested on: SK-MEL-5
[58] = tested on: TK-10

Measured: GI50

C/C(Cc1ccccc1)=N\NC(N)=S
> 100 µM: [9]
inactive: [1] > 100 µM | [2] > 100 µM | [3] > 100 µM | [4] > 100 µM | [5] > 100 µM | [6] > 100 µM | [7] > 100 µM | [8] > 100 µM | [10] 92.9 µM | [11] > 100 µM | [12] > 100 µM | [13] 70.1 µM | [14] > 100 µM | [15] > 100 µM | [16] > 100 µM | [17] > 100 µM | [18] > 100 µM | [19] > 100 µM | [20] > 100 µM | [21] > 100 µM | [22] > 100 µM | [23] 67.1 µM | [24] > 100 µM | [25] > 100 µM | [26] > 100 µM | [27] > 100 µM | [28] > 100 µM | [29] > 100 µM | [30] 76 µM | [31] > 100 µM | [32] > 100 µM | [33] > 100 µM | [34] > 100 µM

Nc1nc2c3c(ncn3CC(O)CO2)n1 (stereo unspecified)
> 100 µM: [9]
inactive: [35] > 100 µM | [36] > 100 µM | [37] > 100 µM | [1] > 100 µM | [2] > 100 µM | [38] > 100 µM | [39] > 100 µM | [3] > 100 µM | [4] > 100 µM | [5] > 100 µM | [6] > 100 µM | [8] 6.31 µM | [10] > 100 µM | [40] > 100 µM | [41] > 100 µM | [11] > 100 µM | [42] > 100 µM | [43] > 100 µM | [12] > 100 µM | [44] > 100 µM | [45] > 100 µM | [46] > 100 µM | [13] > 100 µM | [14] > 100 µM | [15] > 100 µM | [47] > 100 µM | [16] > 100 µM | [17] > 100 µM | [48] > 100 µM | [18] > 100 µM | [19] > 100 µM | [49] > 100 µM | [50] > 100 µM | [20] > 100 µM | [21] > 100 µM | [22] > 100 µM | [51] 7.6 µM | [23] > 100 µM | [24] > 100 µM | [25] > 100 µM | [26] > 100 µM | [27] > 100 µM | [28] > 100 µM | [29] > 100 µM | [52] > 100 µM | [53] > 100 µM | [30] > 100 µM | [54] > 100 µM | [55] > 100 µM | [56] > 100 µM | [57] > 100 µM | [31] > 100 µM | [32] 10.8 µM | [58] > 100 µM | [33] > 100 µM | [34] > 100 µM

Source: ChEMBL document CHEMBL1201862, “PubChem BioAssay data set” (2004)
